According to PubChem BioAssay AID1963829 (Molecular Pharmacology Branch, DTP, NCI, 2024):

Tested on: 935938-334-R-J1-PDC complex spheroid viability
Test: Anticancer human tumor 935938-334-R-J1-PDC patient-derived small intestine adenocarcinoma cell line growth inhibition [POLQ]
Conditions: for IC50: curve of first compound; for viability, T/C: stronger effect = lower value
In short: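 Patient-derived tumour cells were co-cultured with HUVEC and mesenchymal stem cells as multicellular spheroids at 37 °C. They were treated with POLQ inhibitors (novobiocin, ART-558, RP6685) alone or combined with other agents. Top concentrations were at or near clinical Cmax (otherwise 10 microM; SN-38 at 1 microM), decreasing in half-log steps.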

[1] = second compound 0.0316 µM, first compound 0.0316 µM
[2] = second compound 0.0316 µM, first compound 0.1 µM
[3] = second compound 0.1 µM, first compound 0.0316 µM
[4] = second compound 0.1 µM, first compound 0.1 µM
[5] = second compound 0.316 µM, first compound 0.0316 µM
[6] = second compound 0.316 µM, first compound 0.1 µM
[7] = second compound 1 µM, first compound 0.0316 µM
[8] = second compound 1 µM, first compound 0.1 µM
[9] = second compound 3.16 µM, first compound 0.0316 µM
[10] = second compound 3.16 µM, first compound 0.1 µM
[11] = second compound 10 µM, first compound 0.0316 µM
[12] = second compound 10 µM, first compound 0.1 µM
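Also: spheroids exposed to drugs for seven days before viability read.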
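For viability, T/C in this document: 100% = DMSO vehicle control wells.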

**Q.** For CCc1cc2c(N3CCc4c(cc(Cn5ccnc5)cc4-c4cn(C)nc4C(F)(F)F)C3=O)ccnc2c(OC)n1 + COC1C(OC(N)=O)C(O)C(Oc2ccc3c(O)c(NC(=O)c4ccc(O)c(CC=C(C)C)c4)c(=O)oc3c2C)OC1(C)C, which IC50 (second compound 0.0316 µM) is on record?
**A.** > 10000 nM

**Q.** What about the IC50 (second compound 0.1 µM) of the same compound?
**A.** > 10000 nM

**Q.** What about the IC50 (second compound 0.316 µM) of the same compound?
**A.** > 10000 nM

**Q.** And the IC50 (second compound 1 µM)?
**A.** > 10000 nM

**Q.** And the IC50 (second compound 3.16 µM)?
**A.** > 10000 nM

**Q.** And the IC50 (second compound 10 µM)?
**A.** > 10000 nM

**Q.** What about the viability, T/C [1] of the same compound?
**A.** 73.3%

**Q.** And the viability, T/C [2]?
**A.** 86.7%

**Q.** And the viability, T/C (second compound 0.0316 µM, first compound 0.316 µM)?
**A.** 72.2%

**Q.** What about the viability, T/C (second compound 0.0316 µM, first compound 1 µM) of the same compound?
**A.** 94.4%

**Q.** And the viability, T/C (second compound 0.0316 µM, first compound 3.16 µM)?
**A.** 82.7%

**Q.** What about the viability, T/C (second compound 0.0316 µM, first compound 10 µM) of the same compound?
**A.** 65.9%

**Q.** And the viability, T/C [3]?
**A.** 85.7%

**Q.** What about the viability, T/C [4] of the same compound?
**A.** 77.2%

**Q.** And the viability, T/C (second compound 0.1 µM, first compound 0.316 µM)?
**A.** 64.6%

**Q.** What about the viability, T/C (second compound 0.1 µM, first compound 1 µM) of the same compound?
**A.** 83.8%

**Q.** What about the viability, T/C (second compound 0.1 µM, first compound 3.16 µM) of the same compound?
**A.** 86.5%

**Q.** What about the viability, T/C (second compound 0.1 µM, first compound 10 µM) of the same compound?
**A.** 64.5%

**Q.** And the viability, T/C [5]?
**A.** 97.2%

**Q.** What about the viability, T/C [6] of the same compound?
**A.** 62.6%

**Q.** And the viability, T/C (second compound 0.316 µM, first compound 0.316 µM)?
**A.** 85%

**Q.** What about the viability, T/C (second compound 0.316 µM, first compound 1 µM) of the same compound?
**A.** 73.2%

**Q.** And the viability, T/C (second compound 0.316 µM, first compound 3.16 µM)?
**A.** 90.5%

**Q.** And the viability, T/C (second compound 0.316 µM, first compound 10 µM)?
**A.** 70.3%

**Q.** And the viability, T/C [7]?
**A.** 64.7%

**Q.** And the viability, T/C [8]?
**A.** 81.9%

**Q.** And the viability, T/C (second compound 1 µM, first compound 0.316 µM)?
**A.** 62.5%

**Q.** What about the viability, T/C (second compound 1 µM, first compound 1 µM) of the same compound?
**A.** 63.9%

**Q.** And the viability, T/C (second compound 1 µM, first compound 3.16 µM)?
**A.** 87.5%

**Q.** And the viability, T/C (second compound 1 µM, first compound 10 µM)?
**A.** 62.1%

**Q.** What about the viability, T/C [9] of the same compound?
**A.** 74.5%

**Q.** And the viability, T/C [10]?
**A.** 85.5%

**Q.** What about the viability, T/C (second compound 3.16 µM, first compound 0.316 µM) of the same compound?
**A.** 88.5%

**Q.** And the viability, T/C (second compound 3.16 µM, first compound 1 µM)?
**A.** 59.5%

**Q.** What about the viability, T/C (second compound 3.16 µM, first compound 3.16 µM) of the same compound?
**A.** 73.5%

**Q.** And the viability, T/C (second compound 3.16 µM, first compound 10 µM)?
**A.** 72%

**Q.** And the viability, T/C [11]?
**A.** 69.7%

**Q.** And the viability, T/C [12]?
**A.** 67.2%

**Q.** And the viability, T/C (second compound 10 µM, first compound 0.316 µM)?
**A.** 66.1%

**Q.** What about the viability, T/C (second compound 10 µM, first compound 1 µM) of the same compound?
**A.** 73.6%

**Q.** And the viability, T/C (second compound 10 µM, first compound 3.16 µM)?
**A.** 81.2%

**Q.** And the viability, T/C (second compound 10 µM, first compound 10 µM)?
**A.** 72.2%

**Q.** CC[C@@]1(O)C(=O)OCc2c1cc1n(c2=O)Cc2cc3c(CN(C)C)c(O)ccc3nc2-1 + COC1C(OC(N)=O)C(O)C(Oc2ccc3c(O)c(NC(=O)c4ccc(O)c(CC=C(C)C)c4)c(=O)oc3c2C)OC1(C)C was tested. Which IC50 (second compound 0.0316 µM) did it give?
**A.** > 100 nM

**Q.** What about the IC50 (second compound 0.1 µM) of the same compound?
**A.** 80.8 nM

**Q.** What about the IC50 (second compound 0.316 µM) of the same compound?
**A.** 93.3 nM

**Q.** What about the IC50 (second compound 1 µM) of the same compound?
**A.** 90.3 nM

**Q.** And the IC50 (second compound 3.16 µM)?
**A.** 91.5 nM

**Q.** What about the IC50 (second compound 10 µM) of the same compound?
**A.** > 100 nM

**Q.** And the viability, T/C (second compound 0.0316 µM, first compound 0.000316 µM)?
**A.** 90.7%

**Q.** What about the viability, T/C (second compound 0.0316 µM, first compound 0.001 µM) of the same compound?
**A.** 81.6%

**Q.** What about the viability, T/C (second compound 0.0316 µM, first compound 0.00316 µM) of the same compound?
**A.** 98.1%

**Q.** What about the viability, T/C (second compound 0.0316 µM, first compound 0.01 µM) of the same compound?
**A.** 92.1%

**Q.** What about the viability, T/C [1] of the same compound?
**A.** 86.1%

**Q.** What about the viability, T/C [2] of the same compound?
**A.** 56.5%

**Q.** And the viability, T/C (second compound 0.1 µM, first compound 0.000316 µM)?
**A.** 94.2%

**Q.** And the viability, T/C (second compound 0.1 µM, first compound 0.001 µM)?
**A.** 81.4%

**Q.** What about the viability, T/C (second compound 0.1 µM, first compound 0.00316 µM) of the same compound?
**A.** 100%

**Q.** And the viability, T/C (second compound 0.1 µM, first compound 0.01 µM)?
**A.** 90.9%

**Q.** And the viability, T/C [3]?
**A.** 79%

**Q.** What about the viability, T/C [4] of the same compound?
**A.** 43%

**Q.** And the viability, T/C (second compound 0.316 µM, first compound 0.000316 µM)?
**A.** 94.7%

**Q.** And the viability, T/C (second compound 0.316 µM, first compound 0.001 µM)?
**A.** 72.9%

**Q.** What about the viability, T/C (second compound 0.316 µM, first compound 0.00316 µM) of the same compound?
**A.** 103%

**Q.** And the viability, T/C (second compound 0.316 µM, first compound 0.01 µM)?
**A.** 97.7%

**Q.** What about the viability, T/C [5] of the same compound?
**A.** 94.8%

**Q.** What about the viability, T/C [6] of the same compound?
**A.** 47.2%

**Q.** What about the viability, T/C (second compound 1 µM, first compound 0.000316 µM) of the same compound?
**A.** 109%

**Q.** And the viability, T/C (second compound 1 µM, first compound 0.001 µM)?
**A.** 83.1%

**Q.** And the viability, T/C (second compound 1 µM, first compound 0.00316 µM)?
**A.** 76.4%

**Q.** What about the viability, T/C (second compound 1 µM, first compound 0.01 µM) of the same compound?
**A.** 74.8%

**Q.** What about the viability, T/C [7] of the same compound?
**A.** 97.3%

**Q.** What about the viability, T/C [8] of the same compound?
**A.** 46.3%

**Q.** And the viability, T/C (second compound 3.16 µM, first compound 0.000316 µM)?
**A.** 127%

**Q.** And the viability, T/C (second compound 3.16 µM, first compound 0.001 µM)?
**A.** 76.6%

**Q.** What about the viability, T/C (second compound 3.16 µM, first compound 0.00316 µM) of the same compound?
**A.** 79.3%

**Q.** And the viability, T/C (second compound 3.16 µM, first compound 0.01 µM)?
**A.** 77%

**Q.** And the viability, T/C [9]?
**A.** 104%

**Q.** What about the viability, T/C [10] of the same compound?
**A.** 46.4%

**Q.** And the viability, T/C (second compound 10 µM, first compound 0.000316 µM)?
**A.** 109%

**Q.** And the viability, T/C (second compound 10 µM, first compound 0.001 µM)?
**A.** 133%

**Q.** And the viability, T/C (second compound 10 µM, first compound 0.00316 µM)?
**A.** 89.3%

**Q.** What about the viability, T/C (second compound 10 µM, first compound 0.01 µM) of the same compound?
**A.** 67.2%

**Q.** What about the viability, T/C [11] of the same compound?
**A.** 71.7%

**Q.** And the viability, T/C [12]?
**A.** 49.3%
